From US20080039450A1, “Compounds” (priority 2006, published 2008)

Target: T1, MNK2a (Homo sapiens, UniProt Q9HBH9)
T1 construct: expressed in transfected cells; host or cells: HEK293 cells, transient co-transfection with p-eIF4E and p-MNK2a (FuGene6)
Experiment: Cell assay of MNK2a: phosphorylation of downstream substrate eIF4E in HEK293 cells transfected with MNK2a and eIF4E (Western blot)
Assay type: cell-based
Conditions: HEK293 cells over-expressing MNK2a and eIF4E; 60 min incubation; phospho-eIF4E band at 28 kDa by densitometry
Procedure: Analysis of the Effect of MNK-Inhibitors on Phosphorylation of the DownStream Substrate eIF4E
According to the literature el F4E is a unique substrate for MNK1 and MNK2. The purpose of the analysis was to over-express MNK2a together with eIF4E and subsequently incubate with substances of the invention. This would inhibit the MNK2a activity and thereby the phosphorylation of eIF 4E.
Day 1 HEK293 cells were plated in a T162 cm2-flask.
Day 2 Transient transfection with p-elF4E and p-MNK2a. […]
Protein Determination: • The cell lysates were thawed by putting the plates on ice, transferred to Eppendorf tubes and centrifuged at 1300 g, +4° C., 10 min. • 12.5 μl of the supernatant was transferred directly to the plate for protein determination (->dil 1:2) and the rest of the supernatant to new pre-cold tubes and store in −70° C. until assayed. • Day 5-6 Western Blot analysis of cell lysates, according to standard methods, using a specific phospho-elF4E antibody. • To quantify the effect of the substance on the phosphorylation of eIF4E, developed x-ray film from the Western blot analysis was scanned using a densitometer and Image Gauge 4.0 software. The detected band at 28 kDa with 0 μM substance was set to 100%. The density of the band at 28 kDa with the different concentrations of the substance was then analysed. […]

T1 sequence (Q9HBH9 whole entry): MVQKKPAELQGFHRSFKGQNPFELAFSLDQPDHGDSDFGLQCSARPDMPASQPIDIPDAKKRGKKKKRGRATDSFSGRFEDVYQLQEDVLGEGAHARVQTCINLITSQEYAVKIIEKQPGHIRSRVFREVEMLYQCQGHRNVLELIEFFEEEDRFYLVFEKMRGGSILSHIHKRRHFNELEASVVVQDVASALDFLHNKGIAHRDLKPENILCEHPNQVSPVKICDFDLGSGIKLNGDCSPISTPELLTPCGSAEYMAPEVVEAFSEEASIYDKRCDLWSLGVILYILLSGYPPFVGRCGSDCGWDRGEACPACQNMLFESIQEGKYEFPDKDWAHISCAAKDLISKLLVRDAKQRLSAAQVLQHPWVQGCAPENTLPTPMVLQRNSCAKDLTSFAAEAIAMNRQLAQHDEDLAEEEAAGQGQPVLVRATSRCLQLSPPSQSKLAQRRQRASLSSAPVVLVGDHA

IC50 [nM] | Structure (SMILES)
1900 | Nc1ncc(-c2ccc(C(=O)N3CCOCC3)cc2F)nc1-c1ccc(O)cc1 [Example 6, 4-{3-amino-6-[2-fluoro-4-(morpholin-4-ylcarbonyl)phenyl]pyrazin-2-yl}phenol]
900 | O=C(c1ccc(-c2cncc(-c3ccc(O)cc3)n2)cc1)N1CCOCC1 [Example 77, 4-{6-[4-(morpholin-4-ylcarbonyl)phenyl]pyrazin-2-yl}phenol]
